In ChEMBL document CHEMBL3734649, “H2O-mediated isatin spiro-epoxide ring opening with NaCN: Synthesis of novel 3-tetrazolylmethyl-3-hydroxy-oxindole hybrids and their anticancer evaluation” (Eur J Med Chem, 2015):
Active and inactive are the calls of the source. No cut-off for these calls is given here.

What was measured:
[1] = Cell cycle arrest in human DU145 cells assessed as accumulation at S phase at 8 uM after 24 hrs by propidium iodide staining based flow cytometric analysis (reference value: 3.39%); type: functional; settings: DU-145
[2] = Cell cycle arrest in human DU145 cells assessed as accumulation at G1 phase at 4 uM after 24 hrs by propidium iodide staining based flow cytometric analysis (reference value: 78.18%); type: functional; settings: DU-145
DU-145 [3] = experiment: Induction of apoptosis in human DU145 cells assessed as condensed,pyknotic and fragmented nuclei at 1.25 to 5 uM after 48 hrs by DAPI staining based fluorescent microscopic analysis; type: functional, cell-based
DU-145 [4] = experiment: Induction of apoptosis in human DU145 cells after 24 hrs by annexin V-FITC/propidium iodide staining based flow cytometric analysis; type: functional, cell-based
DU-145 [5] = experiment: Induction of apoptosis in human DU145 cells assessed as cell shrinkage at 1.25 to 5 uM after 48 hrs by acridine orange/ethidium bromide staining based fluorescent microscopic analysis; type: functional
[6] = Cell cycle arrest in human DU145 cells assessed as accumulation at S phase at 2 uM after 24 hrs by propidium iodide staining based flow cytometric analysis (reference value: 3.39%); type: functional; settings: DU-145
[7] = Cell cycle arrest in human DU145 cells assessed as accumulation at G2/M phase at 8 uM after 24 hrs by propidium iodide staining based flow cytometric analysis (reference value: 16.66%); type: functional; settings: DU-145
DU-145 [8] = experiment: Induction of apoptosis in human DU145 cells assessed as loss of mitochondrial membrane potential at 5 uM after 24 hrs by rhodamine 123 based spectrofluorometric analysis relative to control; type: functional
DU-145 [9] = experiment: Induction of apoptosis in human DU145 cells assessed as reduction in viable cells at 1.25 to 5 uM after 24 hrs by phase contrast microscopic analysis; type: functional, cell-based
[10] = Anticancer activity against human DU145 cells after 48 hrs by MTT assay; type: functional, cell-based; settings: DU-145, 48 h
DU-145 [11] = experiment: Induction of apoptosis in human DU145 cells assessed as viable cells at 1.25 uM after 24 hrs by annexin V-FITC/propidium iodide staining based flow cytometric analysis (reference value: 89.63%); type: functional; settings: DU-145, 24 h, read-out: Activity
DU-145 [12] = experiment: Induction of apoptosis in human DU145 cells assessed as apoptotic bodies at 1.25 to 5 uM after 24 hrs by phase contrast microscopic analysis; type: functional, cell-based
DU-145 [13] = experiment: Induction of apoptosis in human DU145 cells assessed as early apoptotic cells at 1.25 uM after 24 hrs by annexin V-FITC/propidium iodide staining based flow cytometric analysis (reference value: 3.11%); type: functional
DU-145 [14] = experiment: Induction of apoptosis in human DU145 cells assessed as late apoptotic cells at 5 uM after 24 hrs by annexin V-FITC/propidium iodide staining based flow cytometric analysis (reference value: 4.48%); type: functional
DU-145 [15] = experiment: Induction of apoptosis in human DU145 cells assessed as dead cells at 2.5 uM after 24 hrs by annexin V-FITC/propidium iodide staining based flow cytometric analysis (reference value: 2.78%); type: functional
[16] = Cell cycle arrest in human DU145 cells assessed as accumulation at G1 phase at 2 uM after 24 hrs by propidium iodide staining based flow cytometric analysis (reference value: 78.18%); type: functional; settings: DU-145
DU-145 [17] = experiment: Induction of apoptosis in human DU145 cells assessed as […] deformation at 1.25 to 5 uM after 24 hrs by phase contrast microscopic analysis; type: functional, cell-based
[18] = Cytotoxicity against human RWPE1 cells after 48 hrs by MTT assay; type: cell-based; settings: RWPE-1, 48 h
DU-145 [19] = experiment: Induction of apoptosis in human DU145 cells assessed as dead cells at 1.25 uM after 24 hrs by annexin V-FITC/propidium iodide staining based flow cytometric analysis (reference value: 2.78%); type: functional
DU-145 [20] = experiment: Induction of apoptosis in human DU145 cells assessed as dead cells at 5 uM after 24 hrs by annexin V-FITC/propidium iodide staining based flow cytometric analysis (reference value: 2.78%); type: functional
[21] = Cell cycle arrest in human DU145 cells assessed as accumulation at G2/M phase at 2 uM after 24 hrs by propidium iodide staining based flow cytometric analysis (reference value: 16.66%); type: functional; settings: DU-145
[22] = Cell cycle arrest in human DU145 cells assessed as accumulation at S phase at 4 uM after 24 hrs by propidium iodide staining based flow cytometric analysis (reference value: 3.39%); type: functional; settings: DU-145
DU-145 [23] = experiment: Induction of DNA fragmentation in human DU145 cells assessed as DNA ladder formation at 5 uM after ethidium bromide staining based agarose gel electrophoresis; type: functional, cell-based
DU-145 [24] = experiment: Anticlonogenic activity against human DU145 cells assessed as inhibition of colony formation of cells incubated for 24 hrs followed by compound washout measured after 14 days by methylene-blue staining-based assay; type: functional, cell-based
DU-145 [25] = experiment: Induction of apoptosis in human DU145 cells assessed as apoptotic bodies at 1.25 to 5 uM after 48 hrs by acridine orange/ethidium bromide staining based fluorescent microscopic analysis; type: functional, cell-based
[26] = Cell cycle arrest in human DU145 cells assessed as accumulation at G2/M phase at 4 uM after 24 hrs by propidium iodide staining based flow cytometric analysis (reference value: 16.66%); type: functional; settings: DU-145
MDA-MB-231 = experiment: Anticancer activity against human MDA-MB-231 cells after 48 hrs by MTT assay; type: functional, cell-based; settings: MDA-MB-231, 48 h
[27] = Anticancer activity against human PC3 cells after 48 hrs by MTT assay; type: functional, cell-based; settings: PC-3, 48 h
DU-145 [28] = experiment: Induction of apoptosis in human DU145 cells assessed as chromatin condensation at 1.25 to 5 uM after 48 hrs by acridine orange/ethidium bromide staining based fluorescent microscopic analysis; type: functional, cell-based
DU-145 [29] = experiment: Induction of apoptosis in human DU145 cells assessed as cell shrinkage at 1.25 to 5 uM after 24 hrs by phase contrast microscopic analysis; type: functional, cell-based
[30] = Anticancer activity against human BT549 cells after 48 hrs by MTT assay; type: functional, cell-based; settings: BT-549, 48 h
DU-145 [31] = experiment: Induction of DNA fragmentation in human DU145 cells assessed as smear formation at 1.25 to 2.5 uM after ethidium bromide staining based agarose gel electrophoresis; type: functional, cell-based
[32] = Anticancer activity against human PA1 cells after 48 hrs by MTT assay; type: functional, cell-based; settings: PA-1, 48 h
DU-145 [33] = experiment: Induction of apoptosis in human DU145 cells assessed as ROS production after 24 hrs by carboxy-DCFDA based fluorescence microscopic analysis; type: functional, cell-based
DU-145 [34] = experiment: Induction of apoptosis in human DU145 cells assessed as late apoptotic cells at 2.5 uM after 24 hrs by annexin V-FITC/propidium iodide staining based flow cytometric analysis (reference value: 4.48%); type: functional
DU-145 [35] = experiment: Induction of apoptosis in human DU145 cells assessed as late apoptotic cells at 1.25 uM after 24 hrs by annexin V-FITC/propidium iodide staining based flow cytometric analysis (reference value: 4.48%); type: functional
DU-145 [36] = experiment: Induction of apoptosis in human DU145 cells assessed as early apoptotic cells at 5 uM after 24 hrs by annexin V-FITC/propidium iodide staining based flow cytometric analysis (reference value: 3.11%); type: functional
DU-145 [37] = experiment: Induction of apoptosis in human DU145 cells assessed as viable cells at 5 uM after 24 hrs by annexin V-FITC/propidium iodide staining based flow cytometric analysis (reference value: 89.63%); type: functional; settings: DU-145, 24 h, read-out: Activity
[38] = Cell cycle arrest in human DU145 cells assessed as accumulation at G1 phase at 8 uM after 24 hrs by propidium iodide staining based flow cytometric analysis (reference value: 78.18%); type: functional; settings: DU-145
DU-145 [39] = experiment: Induction of apoptosis in human DU145 cells assessed as viable cells at 2.5 uM after 24 hrs by annexin V-FITC/propidium iodide staining based flow cytometric analysis (reference value: 89.63%); type: functional; settings: DU-145, 24 h, read-out: Activity
DU-145 [40] = experiment: Induction of apoptosis in human DU145 cells assessed as early apoptotic cells at 2.5 uM after 24 hrs by annexin V-FITC/propidium iodide staining based flow cytometric analysis (reference value: 3.11%); type: functional
[41] = Selectivity index, ratio of IC50 for human RWPE1 cells to IC50 for human DU145 cells; type: functional
DU-145 [42] = experiment: Induction of apoptosis in human DU145 cells assessed as membrane blebbing at 1.25 to 5 uM after 48 hrs by acridine orange/ethidium bromide staining based fluorescent microscopic analysis; type: functional, cell-based

For Cc1ccc2c(c1)C(O)(Cc1nnn[nH]1)C(=O)N2Cc1ccccc1 (centres undefined), the Activity [1] was 7.34%, the Activity [2] was 36.3% and the Activity (DU-145 [3]) was “Active”. The Activity (DU-145 [4]) was “Dose-dependent effect”, the Activity (DU-145 [5]) was “Active” and the Activity [6] was 12.3%. For the same compound, the Activity [7] was 72.8%, the Activity (DU-145 [8]) was 45.4% and the Activity (DU-145 [9]) was “Active”. For the same compound, the IC50 [10] was 4.26 µM, the viability at 1.25 µM (DU-145 [11]) was 68.6% and the Activity (DU-145 [12]) was “Active”. For the same compound, the Activity (DU-145 [13]) was 16.63%, the Activity (DU-145 [14]) was 12.59% and the Activity (DU-145 [15]) was 3.2%. The Activity [16] was 44.8%, the Activity (DU-145 [17]) was “Active” and the IC50 [18] was 20.9 µM. For the same compound, the Activity (DU-145 [19]) was 6.27%, the Activity (DU-145 [20]) was 1.31% and the Activity [21] was 39.8%. For the same compound, the Activity [22] was 6.71%, the Activity (DU-145 [23]) was “Active” and the Activity (DU-145 [24]) was “Dose-dependent effect”. The Activity (DU-145 [25]) was “Active”, the Activity [26] was 52.8% and the IC50 (MDA-MB-231) was greater than 100 µM. The IC50 [27] was 11.7 µM, the Activity (DU-145 [28]) was “Active” and the Activity (DU-145 [29]) was “Active”. The IC50 [30] was 91.5 µM, the Activity (DU-145 [31]) was “Active” and the IC50 [32] was 33.9 µM. For the same compound, the Activity (DU-145 [33]) was “Dose-dependent effect”, the Activity (DU-145 [34]) was 11.6% and the Activity (DU-145 [35]) was 8.51%. For the same compound, the Activity (DU-145 [36]) was 44.77%, the viability at 5 µM (DU-145 [37]) was 41.3% and the Activity [38] was 17%. For the same compound, the viability at 2.5 µM (DU-145 [39]) was 58.1%, the Activity (DU-145 [40]) was 27% and the “Ratio IC50” value [41] was 5. The Activity (DU-145 [42]) was “Active”.
For CCN1C(=O)C(O)(Cc2nnn[nH]2)c2ccccc21 (centres undefined), the IC50 [10] was greater than 100 µM, the IC50 (MDA-MB-231) was greater than 100 µM and the IC50 [27] was greater than 100 µM. It also gave an IC50 [30] greater than 100 µM and an IC50 [32] greater than 100 µM.
With CN1C(=O)C(O)(Cc2nnn[nH]2)c2cc(Cl)ccc21 (centres undefined) the IC50 [10] was 76 µM, the IC50 (MDA-MB-231) was greater than 100 µM and the IC50 [27] was greater than 100 µM. It also gave an IC50 [30] greater than 100 µM and an IC50 [32] greater than 100 µM.
In the case of CN1C(=O)C(O)(Cc2nnn[nH]2)c2cc(Br)ccc21 (centres undefined), the IC50 [10] is reported as greater than 100 µM, the IC50 (MDA-MB-231) is reported as 67.3 µM and the IC50 [27] is reported as greater than 100 µM. The IC50 [30] was greater than 100 µM and the IC50 [32] was greater than 100 µM.
Compound O=c1[nH]cc(F)c(=O)[nH]1 [FLUOROURACIL] has an IC50 [10] of 39.2 µM, an IC50 (MDA-MB-231) of 45.4 µM and an IC50 [27] of 68.3 µM. It also gave an IC50 [30] of 19.8 µM and an IC50 [32] of 7.59 µM.
In the case of O=C1N(Cc2ccccc2)c2ccc(Cl)cc2C1(O)Cc1nnn[nH]1 (centres undefined), the IC50 [10] is reported as greater than 100 µM, the IC50 (MDA-MB-231) is reported as 30.3 µM and the IC50 [27] is reported as greater than 100 µM. The IC50 [30] was greater than 100 µM and the IC50 [32] was 100 µM.
For CN1C(=O)C(O)(Cc2nnn[nH]2)c2cc(F)ccc21 (centres undefined), the IC50 [10] was greater than 100 µM, the IC50 (MDA-MB-231) was greater than 100 µM and the IC50 [27] was 38.2 µM. The IC50 [30] was greater than 100 µM and the IC50 [32] was greater than 100 µM.
CN1C(=O)C(O)(Cc2nnn[nH]2)c2ccccc21 (centres undefined) gave an IC50 [10] of 36.8 µM, an IC50 (MDA-MB-231) greater than 100 µM and an IC50 [27] of 44.8 µM. The IC50 [30] was greater than 100 µM and the IC50 [32] was 45.5 µM.
With O=C1N(Cc2ccccc2)c2ccccc2C1(O)Cc1nnn[nH]1 (centres undefined) the IC50 [10] was greater than 100 µM, the IC50 (MDA-MB-231) was 74.1 µM and the IC50 [27] was greater than 100 µM. It also gave an IC50 [30] greater than 100 µM and an IC50 [32] greater than 100 µM.
In the case of O=C1N(Cc2ccc(Br)cc2)c2ccc(F)cc2C1(O)Cc1nnn[nH]1 (centres undefined), the IC50 [10] is reported as 14.4 µM, the IC50 [18] is reported as greater than 100 µM and the IC50 (MDA-MB-231) is reported as greater than 100 µM. It also gave an IC50 [27] greater than 100 µM, an IC50 [30] greater than 100 µM and an IC50 [32] greater than 100 µM.
